pIC50: −log10 of the molar value.
Assays:
[1] = biological target: T1, hormone-sensitive lipase (HSL) (Homo sapiens, UniProt Q05469); assay: gel-based competitive ABPP (FP-TAMRA) on HEK293T membranes expressing human HSL; type: cell-based
T1 construct: gene LIPE; full-length, C-terminal FLAG-tag, expressed in HEK293T

[2] = biological target: T2, hormone-sensitive lipase (HSL) (Mus musculus, UniProt P54310); assay: MS chemical proteomics on mouse tissues; gel-based competitive ABPP on recombinant mouse HSL; type: cell-based
T2 construct: gene Lipe; full-length, C-terminal FLAG-tag, expressed in HEK293T; endogenous in mouse tissue proteomes

5-HT transporter (h) = biological target: T3, 5-HT transporter (h) (Homo sapiens, UniProt P31645); assay: biochemical; parameters: CEREP off-target panel, radioligand binding, inhibition of control specific binding; details: read-out: % Inhibition of Control Specific Binding, Mean
T3 construct: gene SLC6A4

[3] = biological target: T4, Potassium Channel hERG (human) (Homo sapiens, UniProt Q12809); assay: in vitro; parameters: CEREP off-target panel, radioligand binding, inhibition of control specific binding; details: read-out: % Inhibition of Control Specific Binding, Mean
T4 construct: gene KCNH2
From the text: (§1) Mass spectrometry (MS)-based chemical proteomics experiments emulated these findings (Fig. 3d).

dopamine transporter(h) = biological target: T5, dopamine transporter(h) (Homo sapiens, UniProt Q01959); assay: biochemical; parameters: CEREP off-target panel, radioligand binding, inhibition of control specific binding; details: read-out: % Inhibition of Control Specific Binding, Mean
T5 construct: gene SLC6A3
From the text: as §1

[4] = biological target: T6, norepinephrine transporter(h) (Homo sapiens, UniProt P23975); assay: biochemical; parameters: CEREP off-target panel, radioligand binding, inhibition of control specific binding; details: read-out: % Inhibition of Control Specific Binding, Mean
T6 construct: gene SLC6A2
From the text: as §1

[5] = biological target: T7, A2A(h) (agonist radioligand)` (Homo sapiens, UniProt P29274); assay: biochemical; parameters: CEREP off-target panel, radioligand binding, inhibition of control specific binding; details: read-out: % Inhibition of Control Specific Binding, Mean
T7 construct: gene ADORA2A; agonist radioligand

[6] = biological target: T8, D1(h) (antagonist radioligand) (Homo sapiens, UniProt P21728); assay: biochemical; parameters: CEREP off-target panel, radioligand binding, inhibition of control specific binding; details: read-out: % Inhibition of Control Specific Binding, Mean
T8 construct: gene DRD1; antagonist radioligand

[7] = biological target: T9, GR (h) (agonist radioligand) (Homo sapiens, UniProt P04150); assay: biochemical; parameters: CEREP off-target panel, radioligand binding, inhibition of control specific binding; details: read-out: % Inhibition of Control Specific Binding, Mean
T9 construct: gene NR3C1; agonist radioligand

[8] = biological target: T10, α2A(h) (antagonist radioligand) (Homo sapiens, UniProt P08913); assay: biochemical; parameters: CEREP off-target panel, radioligand binding, inhibition of control specific binding; details: read-out: % Inhibition of Control Specific Binding, Mean
T10 construct: gene ADRA2A; antagonist radioligand

[9] = biological target: T11, β2(h) (antagonist radioligand) (Homo sapiens, UniProt P07550); assay: biochemical; parameters: CEREP off-target panel, radioligand binding, inhibition of control specific binding; details: read-out: % Inhibition of Control Specific Binding, Mean
T11 construct: gene ADRB2; antagonist radioligand

COX1(h) = biological target: T12, COX1(h) (Homo sapiens, UniProt P23219); assay: biochemical; parameters: CEREP off-target panel, enzyme inhibition; details: read-out: % Inhibition, Mean (enzymes)
T12 construct: gene PTGS1

COX2(h) = biological target: T13, COX2(h) (Homo sapiens, UniProt P35354); assay: biochemical; parameters: CEREP off-target panel, enzyme inhibition; details: read-out: % Inhibition, Mean (enzymes)
T13 construct: gene PTGS2

Lck kinase (h) = Lck kinase (h) (Homo sapiens, UniProt P06239); assay: biochemical; parameters: CEREP off-target panel, enzyme inhibition; details: read-out: % Inhibition, Mean (enzymes)
PDE3A (h) = PDE3A (h) (Homo sapiens, UniProt Q14432); assay: biochemical; parameters: CEREP off-target panel, enzyme inhibition; details: read-out: % Inhibition, Mean (enzymes)
PDE4D2 (h) = biological target: T14, PDE4D2 (h) (Homo sapiens, UniProt Q08499); assay: biochemical; parameters: CEREP off-target panel, enzyme inhibition; details: read-out: % Inhibition, Mean (enzymes)
T14 construct: gene PDE4D; isoform PDE4D2

acetylcholinesterase (h) = biological target: T15, acetylcholinesterase (h) (Homo sapiens, UniProt P22303); assay: biochemical; parameters: CEREP off-target panel, enzyme inhibition; details: read-out: % Inhibition, Mean (enzymes)
T15 construct: gene ACHE

[10] = biological target: T16, MAGL (monoacylglycerol lipase) (Mus musculus, UniProt O35678); assay: gel-based competitive ABPP (FP-TAMRA, MB064) in mouse brain membrane proteome; type: biochemical; parameters: gene Mgll; endogenous, mouse brain proteome
T16 sequence (O35678 1-303): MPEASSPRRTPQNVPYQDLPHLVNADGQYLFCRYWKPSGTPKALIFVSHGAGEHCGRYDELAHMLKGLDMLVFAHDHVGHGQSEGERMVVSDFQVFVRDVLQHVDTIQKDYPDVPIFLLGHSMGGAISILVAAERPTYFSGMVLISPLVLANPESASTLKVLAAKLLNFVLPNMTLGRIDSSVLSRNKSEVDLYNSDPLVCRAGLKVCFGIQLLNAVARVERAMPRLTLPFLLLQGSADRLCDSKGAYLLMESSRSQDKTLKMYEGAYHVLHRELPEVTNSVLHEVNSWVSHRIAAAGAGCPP

T7 sequence (P29274 whole entry): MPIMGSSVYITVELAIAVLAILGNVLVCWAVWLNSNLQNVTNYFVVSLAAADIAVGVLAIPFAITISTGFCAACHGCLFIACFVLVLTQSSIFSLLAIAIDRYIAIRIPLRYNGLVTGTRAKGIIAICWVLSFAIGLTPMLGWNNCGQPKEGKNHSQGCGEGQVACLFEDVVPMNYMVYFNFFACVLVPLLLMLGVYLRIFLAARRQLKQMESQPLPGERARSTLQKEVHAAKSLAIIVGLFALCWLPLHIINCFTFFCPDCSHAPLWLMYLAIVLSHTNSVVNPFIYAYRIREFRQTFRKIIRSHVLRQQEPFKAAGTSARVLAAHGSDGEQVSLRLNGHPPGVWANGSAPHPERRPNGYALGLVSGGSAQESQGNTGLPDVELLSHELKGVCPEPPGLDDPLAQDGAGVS
T13 sequence (P35354 whole entry): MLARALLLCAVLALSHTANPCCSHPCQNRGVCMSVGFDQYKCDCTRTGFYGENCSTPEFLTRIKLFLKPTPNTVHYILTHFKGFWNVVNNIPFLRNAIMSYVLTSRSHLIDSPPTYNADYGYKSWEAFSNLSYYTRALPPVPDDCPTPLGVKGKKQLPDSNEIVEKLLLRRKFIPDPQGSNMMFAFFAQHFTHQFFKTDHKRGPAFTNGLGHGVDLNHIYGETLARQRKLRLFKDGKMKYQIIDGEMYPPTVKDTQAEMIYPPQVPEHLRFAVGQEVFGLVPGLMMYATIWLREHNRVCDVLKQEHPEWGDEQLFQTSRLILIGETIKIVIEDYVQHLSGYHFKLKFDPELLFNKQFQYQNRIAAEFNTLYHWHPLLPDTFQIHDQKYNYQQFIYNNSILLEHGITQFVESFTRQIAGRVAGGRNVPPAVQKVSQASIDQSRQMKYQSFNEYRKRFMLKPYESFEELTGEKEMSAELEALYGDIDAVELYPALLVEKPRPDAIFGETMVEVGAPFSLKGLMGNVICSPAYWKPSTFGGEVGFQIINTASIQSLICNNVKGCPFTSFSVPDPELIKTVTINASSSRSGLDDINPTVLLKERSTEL
T2 sequence (P54310 whole entry): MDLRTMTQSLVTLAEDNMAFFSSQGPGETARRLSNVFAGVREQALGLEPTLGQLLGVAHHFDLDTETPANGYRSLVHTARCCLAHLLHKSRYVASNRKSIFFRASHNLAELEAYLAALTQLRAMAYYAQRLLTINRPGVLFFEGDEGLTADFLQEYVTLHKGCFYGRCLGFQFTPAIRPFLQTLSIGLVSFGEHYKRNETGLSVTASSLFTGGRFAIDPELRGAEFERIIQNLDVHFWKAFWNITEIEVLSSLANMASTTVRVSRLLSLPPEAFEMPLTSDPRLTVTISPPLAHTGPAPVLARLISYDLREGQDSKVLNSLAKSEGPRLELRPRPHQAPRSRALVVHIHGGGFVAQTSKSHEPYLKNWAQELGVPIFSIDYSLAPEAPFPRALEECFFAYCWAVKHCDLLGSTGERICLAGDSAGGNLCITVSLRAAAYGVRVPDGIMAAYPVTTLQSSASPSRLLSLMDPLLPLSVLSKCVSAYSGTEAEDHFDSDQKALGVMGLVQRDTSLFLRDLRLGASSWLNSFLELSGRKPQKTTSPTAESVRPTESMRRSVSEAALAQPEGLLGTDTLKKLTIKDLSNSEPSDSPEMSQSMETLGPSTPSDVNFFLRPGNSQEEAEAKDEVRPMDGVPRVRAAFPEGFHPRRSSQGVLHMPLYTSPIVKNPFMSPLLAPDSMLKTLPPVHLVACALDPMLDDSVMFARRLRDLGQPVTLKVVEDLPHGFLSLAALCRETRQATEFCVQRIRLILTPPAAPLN
T3 sequence (P31645 whole entry): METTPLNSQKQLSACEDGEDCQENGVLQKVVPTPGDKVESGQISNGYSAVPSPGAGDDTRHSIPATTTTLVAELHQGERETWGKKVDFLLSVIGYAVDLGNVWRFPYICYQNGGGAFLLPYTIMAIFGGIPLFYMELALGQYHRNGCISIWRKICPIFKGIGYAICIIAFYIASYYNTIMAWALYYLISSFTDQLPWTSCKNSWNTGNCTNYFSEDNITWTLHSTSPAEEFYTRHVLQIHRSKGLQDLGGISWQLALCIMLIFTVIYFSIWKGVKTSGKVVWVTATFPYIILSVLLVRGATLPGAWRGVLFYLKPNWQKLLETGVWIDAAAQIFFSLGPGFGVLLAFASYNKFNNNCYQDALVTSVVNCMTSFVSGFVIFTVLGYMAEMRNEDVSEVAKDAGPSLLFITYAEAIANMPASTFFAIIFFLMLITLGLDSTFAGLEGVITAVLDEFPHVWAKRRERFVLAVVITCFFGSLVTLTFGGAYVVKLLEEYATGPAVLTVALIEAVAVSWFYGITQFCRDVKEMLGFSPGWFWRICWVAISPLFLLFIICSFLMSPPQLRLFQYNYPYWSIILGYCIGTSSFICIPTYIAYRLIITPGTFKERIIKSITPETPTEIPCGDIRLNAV
T10 sequence (P08913 whole entry): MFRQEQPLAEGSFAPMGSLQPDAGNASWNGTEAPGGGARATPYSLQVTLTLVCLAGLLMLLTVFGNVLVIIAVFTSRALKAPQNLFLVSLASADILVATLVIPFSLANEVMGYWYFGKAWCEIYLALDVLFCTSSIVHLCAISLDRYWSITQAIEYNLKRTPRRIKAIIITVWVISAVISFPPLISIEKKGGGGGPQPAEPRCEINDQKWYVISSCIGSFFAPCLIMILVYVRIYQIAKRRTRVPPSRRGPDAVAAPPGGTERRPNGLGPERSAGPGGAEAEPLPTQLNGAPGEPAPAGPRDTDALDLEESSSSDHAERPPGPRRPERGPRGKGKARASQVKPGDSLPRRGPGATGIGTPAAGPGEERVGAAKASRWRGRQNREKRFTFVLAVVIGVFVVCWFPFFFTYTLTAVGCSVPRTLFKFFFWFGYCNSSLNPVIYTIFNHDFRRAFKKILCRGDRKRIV
T9 sequence (P04150 whole entry): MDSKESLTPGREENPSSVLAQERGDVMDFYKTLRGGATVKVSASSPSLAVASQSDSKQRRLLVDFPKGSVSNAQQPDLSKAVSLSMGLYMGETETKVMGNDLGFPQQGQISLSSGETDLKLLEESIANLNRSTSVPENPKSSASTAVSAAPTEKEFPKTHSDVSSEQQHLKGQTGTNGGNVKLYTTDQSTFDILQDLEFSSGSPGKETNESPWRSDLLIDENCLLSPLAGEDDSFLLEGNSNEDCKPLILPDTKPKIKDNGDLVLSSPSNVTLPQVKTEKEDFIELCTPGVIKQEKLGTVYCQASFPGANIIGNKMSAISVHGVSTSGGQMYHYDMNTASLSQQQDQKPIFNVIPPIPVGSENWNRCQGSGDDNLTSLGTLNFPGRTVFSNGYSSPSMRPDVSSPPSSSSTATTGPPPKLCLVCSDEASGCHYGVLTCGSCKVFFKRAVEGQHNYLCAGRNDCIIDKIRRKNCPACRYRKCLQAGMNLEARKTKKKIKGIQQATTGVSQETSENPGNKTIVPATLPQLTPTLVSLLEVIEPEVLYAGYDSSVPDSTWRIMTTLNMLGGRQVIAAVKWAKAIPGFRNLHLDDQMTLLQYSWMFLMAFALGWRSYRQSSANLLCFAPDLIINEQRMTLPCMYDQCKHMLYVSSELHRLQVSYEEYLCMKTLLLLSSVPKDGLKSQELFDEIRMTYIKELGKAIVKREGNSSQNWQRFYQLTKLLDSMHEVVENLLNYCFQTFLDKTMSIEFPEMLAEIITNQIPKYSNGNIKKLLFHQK
T11 sequence (P07550 whole entry): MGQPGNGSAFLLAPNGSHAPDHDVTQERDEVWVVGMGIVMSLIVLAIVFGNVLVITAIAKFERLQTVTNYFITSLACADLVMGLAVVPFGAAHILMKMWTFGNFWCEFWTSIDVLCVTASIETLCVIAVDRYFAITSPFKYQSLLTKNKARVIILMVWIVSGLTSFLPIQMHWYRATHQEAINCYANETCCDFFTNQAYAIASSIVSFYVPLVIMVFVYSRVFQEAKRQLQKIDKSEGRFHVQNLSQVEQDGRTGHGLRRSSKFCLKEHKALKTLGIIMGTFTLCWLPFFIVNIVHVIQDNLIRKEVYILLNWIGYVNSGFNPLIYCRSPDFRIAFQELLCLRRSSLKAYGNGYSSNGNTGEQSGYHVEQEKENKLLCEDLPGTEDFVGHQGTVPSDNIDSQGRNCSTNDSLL
T5 sequence (Q01959 whole entry): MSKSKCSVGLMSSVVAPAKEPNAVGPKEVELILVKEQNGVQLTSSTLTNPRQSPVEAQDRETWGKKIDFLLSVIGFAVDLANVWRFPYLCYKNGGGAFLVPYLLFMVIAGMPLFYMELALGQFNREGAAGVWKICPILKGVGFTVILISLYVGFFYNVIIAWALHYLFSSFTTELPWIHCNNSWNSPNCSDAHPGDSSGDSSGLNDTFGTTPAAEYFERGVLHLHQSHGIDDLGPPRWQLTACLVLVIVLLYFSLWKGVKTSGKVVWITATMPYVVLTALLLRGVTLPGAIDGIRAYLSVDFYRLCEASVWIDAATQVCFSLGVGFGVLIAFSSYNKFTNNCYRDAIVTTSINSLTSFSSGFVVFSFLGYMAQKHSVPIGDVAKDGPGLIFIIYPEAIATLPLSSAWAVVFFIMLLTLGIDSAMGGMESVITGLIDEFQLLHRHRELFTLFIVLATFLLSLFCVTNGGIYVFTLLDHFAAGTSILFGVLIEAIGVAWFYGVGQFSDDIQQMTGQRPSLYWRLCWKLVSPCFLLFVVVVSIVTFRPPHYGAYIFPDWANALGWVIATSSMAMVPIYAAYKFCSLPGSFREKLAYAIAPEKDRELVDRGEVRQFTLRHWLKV

CCC(F)(F)C(=O)C[S+]([O-])c1ccc(C(=O)N2CCN(c3cccc(Cl)c3)[C@@H](C)[C@@H]2C)cc1Cl (mixture of isomers) [compound 3, LEI-515]
gel-based competitive ABPP (FP-TAMRA) on HEK293T membranes expressing human HSL [1]: confirmed by gel-based ABPP experiments using membrane fractions of HEK293T cells expressing recombinant human or mouse HSL
MS chemical proteomics on mouse tissues; gel-based competitive ABPP on recombina [2]: hormone-sensitive lipase (HSL) was identified as main off-target in lung, liver, and brain
inhibition at 10 µM (5-HT transporter (h)): 4.2%
inhibition at 10 µM [3]: 5.8%
inhibition at 10 µM (dopamine transporter(h)): 45.2%
inhibition at 10 µM [4]: 25.3%
inhibition at 10 µM [5]: 11.7%
inhibition at 10 µM [6]: 6.2%
inhibition at 10 µM [7]: 30.2%
inhibition at 10 µM [8]: 18.3%
inhibition at 10 µM [9]: 26.8%
inhibition at 10 µM (COX1(h)): 5.4%
inhibition at 10 µM (COX2(h)): 9.5%
inhibition at 10 µM (Lck kinase (h)): -5.3%
inhibition at 10 µM (PDE3A (h)): -27.2%
inhibition at 10 µM (PDE4D2 (h)): -16.6%
inhibition at 10 µM (acetylcholinesterase (h)): 4.9%
pIC50 [10]: 7.60
